Source: PubChem BioAssay (NCI)
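GI50 = concentration required for 50% inhibition of growth. TGI marks complete inhibition of growth.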

Tests used:
Assay in all cases: growth of human tumour cells (NCI), 384-well format
[1] = system: 786-0 renal
[2] = system: A498 renal
[3] = system: A549 NSCLC
[4] = system: ACHN renal
[5] = system: BT-549 breast
[6] = system: CAKI-1 renal
[7] = system: CCRF-CEM leukemia
[8] = system: COLO 205 colon
[9] = system: DU-145 prostate
[10] = system: EKVX NSCLC
[11] = system: HCC-2998 colon
[12] = system: HCT-116 colon
[13] = system: HL-60(TB) leukemia
[14] = system: HOP-62 NSCLC
[15] = system: HOP-92 NSCLC
[16] = system: HS 578T breast
[17] = system: HT29 colon
[18] = system: IGROV1 ovarian
[19] = system: K-562 leukemia
[20] = system: LOX IMVI melanoma
[21] = system: M14 melanoma
[22] = system: MALME-3M melanoma
[23] = system: MCF7 breast
[24] = system: MDA-MB-231 breast
[25] = system: MDA-MB-435 melanoma
[26] = system: MDA-MB-468 breast
[27] = system: MOLT-4 leukemia
[28] = system: NCI-H226 lung
[29] = system: NCI-H23 lung
[30] = system: NCI-H322M lung
[31] = system: NCI-H460 NSCLC
[32] = system: NCI-H522 lung
[33] = system: NCI/ADR-RES ovarian
[34] = system: OVCAR-3 ovarian
[35] = system: OVCAR-4 ovarian
[36] = system: OVCAR-8 ovarian
[37] = system: PC-3 prostate
[38] = system: RPMI-8226 leukemia
[39] = system: RXF 393 renal
[40] = system: SF-268 CNS
[41] = system: SF-295 CNS
[42] = system: SF-539 CNS
[43] = system: SK-MEL-28 melanoma
[44] = system: SK-MEL-5 melanoma
[45] = system: SK-OV-3 ovarian
[46] = system: SN12C renal
[47] = system: SNB-19 CNS
[48] = system: SNB-75 CNS
[49] = system: SR leukemia
[50] = system: SW-620 colon
[51] = system: T-47D breast
[52] = system: TK-10 renal
[53] = system: U251 glioblastoma
[54] = system: UACC-257 melanoma
[55] = system: UACC-62 melanoma
[56] = system: UO-31 renal

`C[C@@H]1COCCN1c1cc(-c2ccnn2C)c2ccnc(-c3ccn[nH]3)c2n1` showed a GI50 [1] of 37.3 nM, a TGI [1] of 191 nM and a GI50 [2] of 19.3 nM. For the same compound, the TGI [2] was 67.7 nM, the GI50 [3] was 104 nM and the TGI [3] was 2230 nM. It also gave a GI50 [4] of 49.8 nM, a TGI [4] of 225 nM and a GI50 [5] of 22.2 nM. It also gave a TGI [5] of 87.1 nM, a GI50 [6] of 142 nM and a TGI [6] of 1800 nM. The GI50 [7] was under 10 nM, the TGI [7] was 21.5 nM and the GI50 [8] was 286 nM. The TGI [8] was 2580 nM, the GI50 [9] was 53 nM and the TGI [9] was 16300 nM. It also gave a GI50 [10] of 124 nM, a TGI [10] of 2480 nM and a GI50 [11] of under 10 nM. It also gave a TGI [11] of 18 nM, a GI50 [12] of 32.9 nM and a TGI [12] of 7970 nM. The GI50 [13] was 26.8 nM, the TGI [13] was 83.9 nM and the GI50 [14] was 28 nM. The TGI [14] was 155 nM, the GI50 [15] was 36.2 nM and the TGI [15] was 339 nM. For the same compound, the GI50 [16] was 16.7 nM, the TGI [16] was 46.5 nM and the GI50 [17] was 234 nM. It also gave a TGI [17] of 706 nM, a GI50 [18] of 93.2 nM and a TGI [18] of 2490 nM. It also gave a GI50 [19] of 40.4 nM, a TGI [19] of 125 nM and a GI50 [20] of 98.4 nM. It also gave a TGI [20] of 1090 nM, a GI50 [21] of 13.2 nM and a TGI [21] of 41.5 nM. It also gave a GI50 [22] of 89.6 nM, a TGI [22] of 985 nM and a GI50 [23] of 18.8 nM. For the same compound, the TGI [23] was 14200 nM, the GI50 [24] was 353 nM and the TGI [24] was over 100000 nM. It also gave a GI50 [25] of 33 nM, a TGI [25] of 456 nM and a GI50 [26] of 192 nM. For the same compound, the TGI [26] was 973 nM, the GI50 [27] was under 10 nM and the TGI [27] was 15.5 nM. For the same compound, the GI50 [28] was 341 nM, the TGI [28] was 4020 nM and the GI50 [29] was 16.2 nM. For the same compound, the TGI [29] was 56.3 nM, the GI50 [30] was 21.7 nM and the TGI [30] was 213 nM. For the same compound, the GI50 [31] was 10.6 nM, the TGI [31] was 515 nM and the GI50 [32] was 411 nM. The TGI [32] was 10700 nM, the GI50 [33] was 72 nM and the TGI [33] was 270 nM. It also gave a GI50 [34] of 91.1 nM, a TGI [34] of 2620 nM and a GI50 [35] of 39 nM. The TGI [35] was 2720 nM, the GI50 [36] was 61.1 nM and the TGI [36] was 357 nM. For the same compound, the GI50 [37] was 262 nM, the TGI [37] was 11800 nM and the GI50 [38] was 17.4 nM. For the same compound, the TGI [38] was 45.2 nM, the GI50 [39] was 27.7 nM and the TGI [39] was 105 nM. The GI50 [40] was 97.4 nM, the TGI [40] was 10500 nM and the GI50 [41] was 36.9 nM. For the same compound, the TGI [41] was 173 nM, the GI50 [42] was 43.2 nM and the TGI [42] was 259 nM. It also gave a GI50 [43] of 1030 nM, a TGI [43] of 13900 nM and a GI50 [44] of 202 nM. For the same compound, the TGI [44] was 873 nM, the GI50 [45] was 63.5 nM and the TGI [45] was 539 nM. The GI50 [46] was 273 nM, the TGI [46] was 6650 nM and the GI50 [47] was 282 nM. For the same compound, the TGI [47] was 9470 nM, the GI50 [48] was 264 nM and the TGI [48] was 1760 nM. The GI50 [49] was under 10 nM, the GI50 [50] was 247 nM and the TGI [50] was 19300 nM. It also gave a GI50 [51] of 389 nM, a TGI [51] of 8100 nM and a GI50 [52] of 28.7 nM. It also gave a TGI [52] of 94.1 nM, a GI50 [53] of 123 nM and a TGI [53] of 11900 nM. The GI50 [54] was 1820 nM, the TGI [54] was 14000 nM and the GI50 [55] was 176 nM. For the same compound, the TGI [55] was 2140 nM, the GI50 [56] was 58.6 nM and the TGI [56] was 828 nM.
